Reference: US20200181671A1, “Method for Increasing Content of Mogroside V in Siraitia Grosvenorii Suspended Cells” (Guilin Layn Natural Ingredients Corp, priority 2017, published 2020)

How the values were obtained:
[1] = system: Siraitia grosvenorii suspended cells; assay: Content of mogroside II in Siraitia grosvenorii suspended cells at the peak of mogroside V, HPLC; assay type: cell-based; details: n = 5, x ± s
Protocol: Weighing 1.5 g Siraitia grosvenorii dry weight cells, adding 60% ethanol at a feed to liquid ratio of […], ultrasonically extracting for 40 min, extracting for 2 h at 90° C. in a slightly boiling state, repeating the extraction for 3 times, and combining the extracts to concentrate them to 5 mL in a rotary evaporator. The concentrate was filtered through a 0.22 μm filtration membrane, and then qualitative and quantitative analysis was performed using a high-performance liquid chromatograph.
Chromatographic conditions: The chromatographic column was a ZORBAX SBC C18 column, 4.6 mm×150 mm; the mobile phase was water-acetonitrile gradient elution (0-25 min, 13.5% to 35% acetonitrile), the flow rate was 0.8 mL/min; and the detection wavelength was 203 nm.

[2] = system: Siraitia grosvenorii suspended cells; assay: Content (yield) of mogroside V in Siraitia grosvenorii suspended cells under different treatment conditions, HPLC; assay type: cell-based
Protocol: Weighing 1.5 g Siraitia grosvenorii dry weight cells, adding 60% ethanol at a feed-to-liquid ratio of 15:1, ultrasonically extracting for 40 min, extracting for 2 h at 90° C. in a slightly boiling state, repeating the extraction for 3 times, and combining the extracts to concentrate them to 5 mL in a rotary evaporator. The concentrate was filtered through a 0.22 μm filtration membrane, and then qualitative and quantitative analysis was performed using a high-performance liquid chromatograph.
Chromatographic conditions: The chromatographic column was an inverted C18 column, 4.6 mm×250 mm; the mobile phase was water-acetonitrile at a ratio of 78:22, the flow rate was 1.0 mL/min; and the detection wavelength was 203 nm.

[3] = system: pueraria suspended cells; details: 1.0 mg/L; cited from earlier work
[4] = system: Taxus chinensis suspended cells; details: 100 μmol/L; cited from earlier work
[5] = system: suspension culture cells of Maackia amurensis Rupr. et Maxim; details: 200 μmol/L, 9 days; cited from earlier work
[6] = system: Siraitia grosvenorii suspended cells; assay: Content (yield) of mogroside V in Siraitia grosvenorii suspended cells under different treatment conditions, HPLC; assay type: cell-based; details: suspended cells in the logarithmic growing period treated with methyl jasmonate alone
[7] = system: Siraitia Grosvenorii Cell Culture System; details: 500 mg/L; cited from earlier work

With `CC/C=C\CC1C(=O)CCC1CC(=O)OC` (stereo not shown) [Comparative Example 4] the “Content of mogroside II” value [1] was 32.8 ± 2.6 g/L, the “yield of mogroside V per unit time” value ([2]; 1 d of culture, n = 5, x ± s) was 31.1 ± 0.8 g/L and the “yield of mogroside V per unit time” value ([2]; 3 d of culture, n = 5, x ± s) was 32.6 ± 0.9 g/L. The “yield of mogroside V per unit time” value ([2]; 5 d of culture, n = 5, x ± s) was 33.2 ± 1.1 g/L, the “yield of mogroside V per unit time” value ([2]; 7 d of culture, n = 5, x ± s) was 33.5 ± 1.5 g/L and the “yield of mogroside V per unit time” value ([2]; 9 d of culture, n = 5, x ± s) was 39.5 ± 2.0 g/L. For the same molecule, the “yield of mogroside V per unit time” value ([2]; 11 d of culture, n = 5, x ± s) was 46.5 ± 1.8 g/L, the “yield of mogroside V per unit time” value ([2]; 13 d of culture, n = 5, x ± s) was 51.6 ± 1.8 g/L and the “yield of mogroside V per unit time” value ([2]; 15 d of culture, n = 5, x ± s) was 53.6 ± 1.5 g/L. For the same molecule, the “yield of mogroside V per unit time” value ([2]; 17 d of culture, n = 5, x ± s) was 54.5 ± 1.6 g/L, the “yield of mogroside V per unit time” value ([2]; 19 d of culture, n = 5, x ± s) was 55.7 ± 1.8 g/L and the “yield of mogroside V per unit time” value ([2]; 21 d of culture, n = 5, x ± s) was 56.8 ± 2.0 g/L. The “yield of mogroside V per unit time” value ([2]; 23 d of culture, n = 5, x ± s) was 58.2 ± 2.2 g/L, the “yield of mogroside V per unit time” value ([2]; 25 d of culture, n = 5, x ± s) was 55.2 ± 2.4 g/L and the “yield of mogroside V per unit time” value ([2]; 27 d of culture, n = 5, x ± s) was 51.4 ± 2.5 g/L. The “yield of mogroside V per unit time” value ([2]; 29 d of culture, n = 5, x ± s) was 46.5 ± 2.4 g/L, the “yield of mogroside V per unit time” value ([2]; 31 d of culture, n = 5, x ± s) was 41.2 ± 2.5 g/L and the “Peak yield (maximum yield) of mogroside V” value ([2]; maximum over days 1 to 31 of culture, n = 5, x ± s) was 58.2 ± 2.2 g/L.
In the case of `CC/C=C\CC1C(=O)CCC1CC(=O)OC` (stereo not shown) [methyl jasmonate, Methyl jasmonate], the “content of puerarin in the cell culture” value [3] is given as “increased”, the “increase of the content of paclitaxel” value [4] is given as 10 times and the “total content of mogroside V” value ([2]; inducer added alone, compared with the normal culture group, result in words) is given as “decreased compared with the normal culture group”. The “amount of synthesis of mogroside V per unit time” value ([2]; suspended cells in the logarithmic growing period treated with methyl jasmonate alone) was “increased”, the “content of isoflavone, of that of the control of the same period” value [5] was 417.18% and the cell browning [6] was “cell browning phenomenon was obvious”.
For `N[C@@H](Cc1ccccc1)C(=O)O` [phenylalanine], the “increase of the total amount of mogroside V compared with the control group” value [7] is listed as 260.38%.
